These results are taken from patent US20240368121A1, “ESTROGEN RECEPTOR DEGRADERS, PHARMACEUTICAL COMPOSITIONS THEREOF, AND THEIR THERAPEUTIC APPLICATIONS” (BioTheryX, Inc., priority 2021, published 2024).

What all share (type): cell-based
One test deals with MCF7 cells. As to the kind of experiment: Cell viability assay ([…]-GLO, 6-day treatment). The note with it: Homo sapiens, MCF7, 144 h; MCF-7 cells, 6 days, CTG; read-out: Inhibition of Cancerous Cells IC50 MCF-7. The essentials:
(§1)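 MCF7 (MEM) and T47D (RPMI with insulin), both with 10% FBS, at 1,000 cells/well, treated with a 10-point compound dose series for 6 days, with medium and compound refreshed once. Viability read by CellTiter-Glo luminescence.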

The test system of the next test is T47D cells. As to the kind of experiment: Cell viability assay ([…]-GLO, 6-day treatment). The note with it: Homo sapiens, 144 h, 6 days, CTG, read-out: Inhibition of Cancerous Cells IC50 T47D. In outline:
as §1

A further test addresses T1, ERα (Homo sapiens, UniProt P03372).
T1 construct: degrading an ERα in MCF-7 cells via a western blot; endogenous in cells; host or cells: MCF-7
T1 sequence (P03372 1-595): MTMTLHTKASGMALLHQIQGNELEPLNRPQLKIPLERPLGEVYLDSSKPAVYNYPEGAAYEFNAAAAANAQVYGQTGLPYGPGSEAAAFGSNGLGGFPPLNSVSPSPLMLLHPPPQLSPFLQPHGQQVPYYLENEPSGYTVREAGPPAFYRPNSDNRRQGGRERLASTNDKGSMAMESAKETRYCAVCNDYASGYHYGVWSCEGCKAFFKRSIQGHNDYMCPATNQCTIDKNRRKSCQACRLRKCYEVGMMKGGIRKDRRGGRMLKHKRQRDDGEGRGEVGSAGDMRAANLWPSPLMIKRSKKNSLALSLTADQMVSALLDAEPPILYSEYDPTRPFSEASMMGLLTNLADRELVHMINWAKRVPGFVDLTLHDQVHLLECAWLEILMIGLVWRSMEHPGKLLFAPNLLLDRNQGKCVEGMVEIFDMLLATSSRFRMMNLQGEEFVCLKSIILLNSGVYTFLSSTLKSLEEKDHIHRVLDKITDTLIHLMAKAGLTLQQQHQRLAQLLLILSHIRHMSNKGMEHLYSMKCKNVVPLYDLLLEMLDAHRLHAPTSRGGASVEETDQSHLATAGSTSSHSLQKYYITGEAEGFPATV
As to the kind of experiment: Protein degradation assay: ERα in MCF-7 cells via western blot. Particulars: 6 h; for ERα Protein Degradation 1 nM: 1 nM compound; for ERα Protein Degradation 10 nM: 10 nM compound; for ERα Protein Degradation 100 nM: 100 nM compound. In outline: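 MCF-7 cells in MEM/10% FBS with insulin, seeded 300,000/well, treated 6 h at set concentrations (e.g., 1 nM–1 μM). Whole-cell lysates immunoblotted for ERα with GAPDH loading control, chemiluminescent detection; percentage degradation reported in binned categories (≥50%, 25–50%, 10–25%, <10%).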

As a reminder, the IC50 is the concentration that inhibits the measured activity by half.

As to `O=C1CCC(N2Cc3c(cc(F)cc3C3CCN(CCCCCCOc4ccc([C@@H]5c6ccc(O)cc6CC[C@@H]5c5ccccc5)cc4)CC3)C2=O)C(=O)N1` (stereo partly drawn) [Compound A2, 3-(6-Fluoro-4-(1-(6-(4-((1R,2S)-6-hydroxy-2-phenyl-1,2,3,4-tetrahydro-naphthalen-1-yl)phenoxy)hexyl)piperidin-4-yl)-1-oxoisoindolin-2-yl)piperidine-2,6-dione], in the test on MCF7 cells, the IC50 is 0.72 nM. For the same compound, the IC50 in the test with T47D cells is 0.61 nM. Besides, at ERα, the “ERα Protein Degradation 1 nM” value is “D (a percentage degradation value of less than 10%)”, the “ERα Protein Degradation 10 nM” value is reported as “D (a percentage degradation value of less than 10%)” and the “ERα Protein Degradation 100 nM” value is “D (a percentage degradation value of less than 10%)”.
Take `Cc1c(-c2ccc(O)cc2)n(Cc2ccc(OCCCCN3CCN(c4ccc5c(c4)CN(C4CCC(=O)NC4=O)C5=O)CC3)cc2)c2ccc(O)cc12` (centres unmarked) [Compound E2, 3-(5-(4-(4-(4-((5-Hydroxy-2-(4-hydroxyphenyl)-3-methyl-1H-indol-1-yl)methyl)-phenoxy)butyl)piperazin-1-yl)-1-oxoisoindolin-2-yl)piperidine-2,6-dione]: the IC50 with MCF7 cells stood at 0.45 nM. Also, the IC50 in the test on T47D cells stood at 0.25 nM. Moreover, on ERα, the “ERα Protein Degradation 1 nM” value is listed as “D (a percentage degradation value of less than 10%)”, the “ERα Protein Degradation 10 nM” value is listed as “D (a percentage degradation value of less than 10%)” and the “ERα Protein Degradation 100 nM” value is “D (a percentage degradation value of less than 10%)”.
As for `O=C1CCC(N2Cc3cc(C4CCN(CCCCOc5ccc([C@@H]6c7ccc(O)cc7CC[C@@H]6c6ccccc6)cc5)CC4)c(F)cc3C2=O)C(=O)N1` (stereo partly drawn) [Compound A4, 3-(6-Fluoro-5-(1-(4-(4-((1R,2S)-6-hydroxy-2-phenyl-1,2,3,4-tetrahydro-naphthalen-1-yl)phenoxy)butyl)piperidin-4-yl)-1-oxoisoindolin-2-yl)piperidine-2,6-dione], the IC50 with MCF7 cells worked out at 0.06 nM. Further, the IC50 with T47D cells turned out to be 0.08 nM. Besides, on ERα, the “ERα Protein Degradation 1 nM” value is reported as “D (a percentage degradation value of less than 10%)”, the “ERα Protein Degradation 10 nM” value is “D (a percentage degradation value of less than 10%)” and the “ERα Protein Degradation 100 nM” value was “D (a percentage degradation value of less than 10%)”.
As to `O=C1CCC(Nc2cccc(NC3CCN(CC4CCN(c5ccc([C@@H]6c7ccc(O)cc7CC[C@@H]6c6ccccc6)cc5)CC4)CC3)c2)C(=O)N1` (stereo partly drawn) [Compound B14, 3-((3-((1-((1-(4-((1R,2S)-6-hydroxy-2-phenyl-1,2,3,4-tetrahydronaphthalen-1-yl)phenyl)piperidin-4-yl)methyl)piperidin-4-yl)amino)phenyl)amino)piperidine-2,6-dione], the IC50 in the test on MCF7 cells stood at 0.73 nM. Besides, the IC50 in the test with T47D cells came to 1.2 nM. Also, on ERα, the “ERα Protein Degradation 1 nM” value is “D (a percentage degradation value of less than 10%)”, the “ERα Protein Degradation 10 nM” value is reported as “D (a percentage degradation value of less than 10%)” and the “ERα Protein Degradation 100 nM” value was “D (a percentage degradation value of less than 10%)”.
Consider `Cc1c(-c2ccc(O)cc2)n(Cc2ccc(OCCCCNCc3ccc(OCc4scc5c4CN(C4CCC(=O)NC4=O)C5=O)cc3)cc2)c2ccc(O)cc12` (centres unmarked) [Compound E5, 3-(1-((4-(((4-(4-((5-hydroxy-2-(4-hydroxyphenyl)-3-methyl-1H-indol-1-yl)-methyl)phenoxy)butyl)amino)methyl)phenoxy)methyl)-4-oxo-4H-thieno[3,4-c]pyrrol-5(6H)-yl)-piperidine-2,6-dione], for which the IC50 in the test with MCF7 cells came to 0.09 nM. Besides, in the test on T47D cells, the IC50 is 0.02 nM. In addition, on ERα, the “ERα Protein Degradation 1 nM” value is reported as “D (a percentage degradation value of less than 10%)”, the “ERα Protein Degradation 10 nM” value is “D (a percentage degradation value of less than 10%)” and the “ERα Protein Degradation 100 nM” value is “D (a percentage degradation value of less than 10%)”.
For `CN(C(=O)CN1CCN(CC2CCN(c3ccc([C@@H]4c5ccc(O)cc5CC[C@@H]4c4ccccc4)cc3)CC2)CC1)c1cccc(NC2CCC(=O)NC2=O)c1` (stereo partly drawn) [Compound B20, N-(3-((2,6-Dioxopiperidin-3-yl)amino)phenyl)-2-(4-((1-(4-((1R,2S)-6-hydroxy-2-phenyl-1,2,3,4-tetrahydronaphthalen-1-yl)phenyl)piperidin-4-yl)methyl)piperazin-1-yl)-N-methylacetamide], the IC50 in the test with MCF7 cells stood at 5.7 nM. In addition, the IC50 in the test with T47D cells is 0.93 nM. Moreover, at ERα, the “ERα Protein Degradation 1 nM” value is “B (a percentage degradation value of less than 50% and no less than 25%)”; the “ERα Protein Degradation 10 nM” value is “C (a percentage degradation value of less than 25% and no less than 10%)”; the “ERα Protein Degradation 100 nM” value is listed as “D (a percentage degradation value of less than 10%)”.
For the compound `O=C1CCC(N2Cc3c(cc(F)cc3C3CCN(CC4CCN(c5ccc([C@@H]6c7ccc(O)cc7CC[C@@H]6c6ccccc6)cc5)CC4)CC3)C2=O)C(=O)N1` (stereo partly drawn) [Compound A3, 3-(6-Fluoro-4-(1-((1-(4-((1R,2S)-6-hydroxy-2-phenyl-1,2,3,4-tetrahydro-naphthalen-1-yl)phenyl)piperidin-4-yl)methyl)piperidin-4-yl)-1-oxoisoindolin-2-yl)piperidine-2,6-dione], the IC50 in the test on MCF7 cells was 0.2 nM. The IC50 in the test with T47D cells amounted to 0.44 nM. In addition, at ERα, the “ERα Protein Degradation 1 nM” value is on record as “D (a percentage degradation value of less than 10%)”, the “ERα Protein Degradation 10 nM” value is “D (a percentage degradation value of less than 10%)” and the “ERα Protein Degradation 100 nM” value is listed as “D (a percentage degradation value of less than 10%)”.
